Several values for one entry are separate records, joined by “and”; a condition that tells them apart may be missing. Equal values may be shown once. Read-outs that look alike come from different tables or passages of the source.
How the values were obtained:
[1] = biological target: T1, PAI-1 (Homo sapiens, UniProt P05121); assay: chromogenic screening assay: rate of tPA inhibition by PAI-1 (spectrozyme tPA hydrolysis); format: biochemical; conditions: for kapp 50 μM (apparent rate constant of tPA inhibition by PAI-1): compound 50 μM, 1% DMSO, PAI-1 20 nM, tPA 10 nM, DMSO 1% control 4.4 ± 0.3 × 10^-3
T1 construct: purchased Stago BNL (Asnières sur Seine, FR)
T1 sequence (P05121 24-402): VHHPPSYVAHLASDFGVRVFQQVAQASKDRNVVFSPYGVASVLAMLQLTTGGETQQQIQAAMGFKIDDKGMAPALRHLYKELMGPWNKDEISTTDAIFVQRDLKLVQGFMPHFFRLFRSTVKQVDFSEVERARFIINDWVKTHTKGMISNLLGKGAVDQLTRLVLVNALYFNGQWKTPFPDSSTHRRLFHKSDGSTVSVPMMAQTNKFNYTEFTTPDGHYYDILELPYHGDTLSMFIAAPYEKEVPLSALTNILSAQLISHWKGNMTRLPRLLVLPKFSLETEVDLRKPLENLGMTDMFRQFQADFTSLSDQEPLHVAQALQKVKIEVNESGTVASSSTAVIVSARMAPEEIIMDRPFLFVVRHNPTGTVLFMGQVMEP
Method: Compounds from our local collection BioCIS and from the Prestwick compound library (Prestwick chemicals, Illkirch, FR), a collection containing only FDA approved drugs (around 4000 compounds in total) were tested in a chromogenic assay measuring the inhibition rate of tPA-catalyzed spectrozyme® tPA hydrolysis in the presence of PAI-1. Compounds (20 μL, final concentration 50 μM, 1% DMSO) were dispensed in a 96 well half area Greiner plate. A mixture containing 20 μL of PAI-1 (final concentration 20 nM) and 80 μL of Spectrozyme-tPA (final concentration 400 μM) was then added, and the mixture pre-incubated for 45 minutes at 37 °C. At the end of pre-incubation time, 90 μL of the mixture were added to another 96 well half area plate containing 10 μL tPA (final concentration 10 nM). The kinetic was then measured at 405 nm for 45 min at 37 °C in an Envision microplate reader. Progress curves were fitted using the pseudo first order equation to determine the apparent rate constant k.

[2] = test system: vitronectin-bound PAI-1; conditions: cited from earlier work
[3] = biological target: T1, PAI-1; assay: thromboelastography (TEG) on pooled human plasma with tPA and PAI-1; format: biochemical; conditions: compound 50 μM, tPA 9 nM + PAI-1 22 nM
Method: 20 μL of CaCl2 (0.2 M), 10 μL of PAI-1 (final concentration 22 nM) and 10 μL of tested compounds were added in a TEG cup and pre-incubated for 20 min at room temperature. On the other hand, 1 mL of pooled citrated normal human plasma (pool of at least 10 healthy donors) was added to a vial containing 20 μL of Kaolin. 680 μl of the plasma/Kaolin mixture were then added to 20 μL of tPA (final concentration 9 nM). At the end of pre-incubation time, 320 μL of the plasma/tPA/kaolin mixture were transferred into the TEG cup and the thromboelastogram measured.

[4] = chromogenic screening assay, without vitronectin, mean ± SEM, n = 3, read-out: IC50

| Compound | IC50 [1] | kapp 50 μM (apparent rate constant of tPA inhibition by PAI-1) ([1]; mean ± SEM, n = 3) | IC50 [1, 4] | activity against PAI-1 bound to vitronectin [2] | further results |
| --- | --- | --- | --- | --- | --- |
| CCCCCCCCCCCC[C@@H](O)[C@H]1CC[C@H]([C@H](O)CCCC[C@H](O)CCCCC[C@@H](O)CC2=CC(C)OC2=O)O1 (stereo partly shown) [Annonacine] | 6 ± 3 µM | 6.4 ± 0.4 × 10^-4 s^-1 | – | – | – |
| CCCCCCCCCCCC[C@@H](O)[C@H]1CC[C@H]([C@H](O)CCCC[C@H](O)CCCCCC2CC(CC(C)=O)C(=O)O2)O1 (stereo partly shown) [Isoannonacine] | > 50 µM | 1.1 ± 0.1 × 10^-3 s^-1 | – | – | – |
| CCCCCCCCCC[C@H](O)[C@H]1CC[C@H]([C@H]2CC[C@H]([C@H](O)CCCCCCCCCCC3CC(CC(C)=O)C(=O)O3)O2)O1 (stereo partly shown) [Isorolliniastatin-2] | – | 8.5 ± 0.6 × 10^-4 s^-1 | 10 ± 2 µM | – | – |
| CCCCCc1c(-c2ccc3cc(OCc4nnn[nH]4)ccc3c2)n(Cc2ccccc2)c2ccccc12 [PAI-749] | – | – | – | devoid of activity | – |
| CCCCCCCCCC[C@H](O)[C@H]1CC[C@H]([C@H]2CC[C@H]([C@H](O)CCCCCCCCCCC(O)CC3=C[C@H](C)OC3=O)O2)O1 (stereo partly shown) [Rolliniastatin-2] | – | 7.5 ± 0.5 × 10^-4 s^-1 | 19 ± 1 µM | – | – |
| O=C(O)C(=O)c1cn(Cc2ccccc2)c2ccc(-c3ccc(OC(F)(F)F)cc3)cc12 [Tiplaxtinin, reference compound] | – | 1.7 ± 0.3 × 10^-3 s^-1 | – | devoid of activity | kapp 50 μM (apparent rate constant of tPA inhibition by PAI-1) ([1]; mean ± SEM, n = 3, listed as tiplaxtinin): 1.7 ± 0.3 × 10^−3 s^-1; Angle [3]: 66.2 °; K (clot formation time) [3]: 1.8 min; MA (maximal amplitude) [3]: 24.5 mm; R (clotting time) [3]: 7 min; LY30 (clot lysis 30 minutes after maximal amplitude) ([3]; tPA alone 94.3%, tPA + PAI-1 0%): 21.9%; LY60 (clot lysis 60 minutes after maximal amplitude) ([3]; tPA alone 96.8%, tPA + PAI-1 0%): 50% and 50.2%; activity against vitronectin-bound PAI-1 [2]: inactive |
